Data from PubChem BioAssay AID1963442 (Molecular Pharmacology Branch, DTP, NCI, 2024).

Tested on: MPNST complex spheroid with HUVEC/MSC, growth, % test/control
Test: Anticancer human tumor MPNST cell line growth inhibition [Asc];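 note: compounds left on spheroids for seven days before reading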
Conditions: for IC50: curve of first compound; for viability, T/C: stronger effect = lower value; active = viability on the fitted dose curve at most 10% of control; inactive = the rest
Method in brief: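 Complex solid-tumor spheroids incorporating human endothelial and mesenchymal stem cells received single agents or combinations over half-log dilution ranges anchored to clinical Cmax.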

[1] = second compound 0.00316 µM, first compound 0.0316 µM
[2] = second compound 0.00316 µM, first compound 0.1 µM
[3] = second compound 0.01 µM, first compound 0.0316 µM
[4] = second compound 0.01 µM, first compound 0.1 µM
[5] = second compound 0.0316 µM, first compound 0.0316 µM
[6] = second compound 0.0316 µM, first compound 0.1 µM
[7] = second compound 0.1 µM, first compound 0.0316 µM
[8] = second compound 0.1 µM, first compound 0.1 µM
[9] = second compound 0.316 µM, first compound 0.0316 µM
[10] = second compound 0.316 µM, first compound 0.1 µM
[11] = second compound 1 µM, first compound 0.0316 µM
[12] = second compound 1 µM, first compound 0.1 µM

Cc1nc(N2CCC3(CC2)COC(C)C3N)c(CO)nc1Sc1ccnc(N)c1Cl (centres undefined) + CCN1C(C(=O)NC23CCC(C(=O)O)(CC2)CC3)C(c2cccc(Cl)c2F)C2(C(=O)Nc3cc(Cl)ccc32)C12CCCCC2
inactive: viability, T/C (second compound 0.03 µM, first compound 0.00949 µM) 92% | viability, T/C (second compound 0.03 µM, first compound 0.03 µM) 84.1% | viability, T/C (second compound 0.03 µM, first compound 0.0949 µM) 90.7% | viability, T/C (second compound 0.03 µM, first compound 0.3 µM) 87.9% | viability, T/C (second compound 0.03 µM, first compound 0.949 µM) 101% | viability, T/C (second compound 0.03 µM, first compound 3 µM) 75.5% | viability, T/C (second compound 0.0949 µM, first compound 0.00949 µM) 83.8% | viability, T/C (second compound 0.0949 µM, first compound 0.03 µM) 89% | viability, T/C (second compound 0.0949 µM, first compound 0.0949 µM) 92.2% | viability, T/C (second compound 0.0949 µM, first compound 0.3 µM) 82.2% | viability, T/C (second compound 0.0949 µM, first compound 0.949 µM) 75.5% | viability, T/C (second compound 0.0949 µM, first compound 3 µM) 58.3% | viability, T/C (second compound 0.3 µM, first compound 0.00949 µM) 101% | viability, T/C (second compound 0.3 µM, first compound 0.03 µM) 83.6% | viability, T/C (second compound 0.3 µM, first compound 0.0949 µM) 92.8% | viability, T/C (second compound 0.3 µM, first compound 0.3 µM) 77.2% | viability, T/C (second compound 0.3 µM, first compound 0.949 µM) 83.2% | viability, T/C (second compound 0.3 µM, first compound 3 µM) 63.4% | viability, T/C (second compound 0.949 µM, first compound 0.00949 µM) 77.9% | viability, T/C (second compound 0.949 µM, first compound 0.03 µM) 89.9% | viability, T/C (second compound 0.949 µM, first compound 0.0949 µM) 70% | viability, T/C (second compound 0.949 µM, first compound 0.3 µM) 76.7% | viability, T/C (second compound 0.949 µM, first compound 0.949 µM) 68% | viability, T/C (second compound 0.949 µM, first compound 3 µM) 54.4% | viability, T/C (second compound 3 µM, first compound 0.00949 µM) 66.3% | viability, T/C (second compound 3 µM, first compound 0.03 µM) 75.9% | viability, T/C (second compound 3 µM, first compound 0.0949 µM) 72.4% | viability, T/C (second compound 3 µM, first compound 0.3 µM) 67.8% | viability, T/C (second compound 3 µM, first compound 0.949 µM) 52.3% | viability, T/C (second compound 3 µM, first compound 3 µM) 55.8%
> 3000 nM: IC50 (second compound 0.03 µM) | IC50 (second compound 0.0949 µM) | IC50 (second compound 0.3 µM) | IC50 (second compound 0.949 µM) | IC50 (second compound 3 µM)

Cn1ncnc1[C@H]1c2n[nH]c(=O)c3cc(F)cc(c23)N[C@@H]1c1ccc(F)cc1 + CNC(C)C(=O)NC1CN(S(=O)(=O)c2cccc(S(=O)(=O)N3CCC4CCC(C(=O)NC(c5ccccc5)c5ccccc5)N4C(=O)C(NC(=O)C(C)NC)C3)c2)CCC2CCC(C(=O)NC(c3ccccc3)c3ccccc3)N2C1=O
82.1 nM: IC50 (second compound 0.1 µM)
26.7 nM: IC50 (second compound 0.316 µM)
inactive: viability, T/C (second compound 0.00316 µM, first compound 0.000316 µM) 12.2% | viability, T/C (second compound 0.00316 µM, first compound 0.001 µM) 11.4% | viability, T/C (second compound 0.00316 µM, first compound 0.00316 µM) 10.4% | viability, T/C (second compound 0.00316 µM, first compound 0.01 µM) 11.5% | viability, T/C [1] 11.3% | viability, T/C [2] 10.7% | viability, T/C (second compound 0.01 µM, first compound 0.000316 µM) 58.8% | viability, T/C (second compound 0.01 µM, first compound 0.001 µM) 46.2% | viability, T/C (second compound 0.01 µM, first compound 0.00316 µM) 50.8% | viability, T/C (second compound 0.01 µM, first compound 0.01 µM) 37.4% | viability, T/C [3] 32.5% | viability, T/C [4] 34.8% | viability, T/C (second compound 0.0316 µM, first compound 0.000316 µM) 77.7% | viability, T/C (second compound 0.0316 µM, first compound 0.001 µM) 73.9% | viability, T/C (second compound 0.0316 µM, first compound 0.00316 µM) 73.6% | viability, T/C (second compound 0.0316 µM, first compound 0.01 µM) 65.4% | viability, T/C [5] 43.5% | viability, T/C [6] 45.2% | viability, T/C (second compound 0.1 µM, first compound 0.000316 µM) 90.3% | viability, T/C (second compound 0.1 µM, first compound 0.001 µM) 64.1% | viability, T/C (second compound 0.1 µM, first compound 0.00316 µM) 70.6% | viability, T/C (second compound 0.1 µM, first compound 0.01 µM) 74.7% | viability, T/C [7] 61.1% | viability, T/C [8] 46.4% | viability, T/C (second compound 0.316 µM, first compound 0.000316 µM) 76.2% | viability, T/C (second compound 0.316 µM, first compound 0.001 µM) 62.5% | viability, T/C (second compound 0.316 µM, first compound 0.00316 µM) 88.4% | viability, T/C (second compound 0.316 µM, first compound 0.01 µM) 57.5% | viability, T/C [9] 51.3% | viability, T/C [10] 46.1% | viability, T/C (second compound 1 µM, first compound 0.000316 µM) 51.3% | viability, T/C (second compound 1 µM, first compound 0.001 µM) 68.3% | viability, T/C (second compound 1 µM, first compound 0.00316 µM) 49.5% | viability, T/C (second compound 1 µM, first compound 0.01 µM) 73.9% | viability, T/C [11] 53.9% | viability, T/C [12] 50.1%
< 0.316 nM: IC50 (second compound 0.00316 µM)
23.2 nM: IC50 (second compound 0.0316 µM)
1.09 nM: IC50 (second compound 0.01 µM)
96.7 nM: IC50 (second compound 1 µM)

O=C(c1cc(Cc2n[nH]c(=O)c3ccccc23)ccc1F)N1CCN(C(=O)C2CC2)CC1 + CNC(C)C(=O)NC1CN(S(=O)(=O)c2cccc(S(=O)(=O)N3CCC4CCC(C(=O)NC(c5ccccc5)c5ccccc5)N4C(=O)C(NC(=O)C(C)NC)C3)c2)CCC2CCC(C(=O)NC(c3ccccc3)c3ccccc3)N2C1=O
< 31.6 nM: IC50 (second compound 0.00316 µM) | IC50 (second compound 0.01 µM)
2510 nM: IC50 (second compound 0.316 µM)
2460 nM: IC50 (second compound 0.1 µM)
inactive: viability, T/C [1] 12.7% | viability, T/C [2] 10.7% | viability, T/C (second compound 0.00316 µM, first compound 0.316 µM) 13.4% | viability, T/C (second compound 0.00316 µM, first compound 1 µM) 12.9% | viability, T/C (second compound 0.00316 µM, first compound 3.16 µM) 12.1% | viability, T/C (second compound 0.00316 µM, first compound 10 µM) 13.7% | viability, T/C [3] 41% | viability, T/C [4] 36.8% | viability, T/C (second compound 0.01 µM, first compound 0.316 µM) 50.4% | viability, T/C (second compound 0.01 µM, first compound 1 µM) 44.6% | viability, T/C (second compound 0.01 µM, first compound 3.16 µM) 26.4% | viability, T/C (second compound 0.01 µM, first compound 10 µM) 27.4% | viability, T/C [5] 76.2% | viability, T/C [6] 65.6% | viability, T/C (second compound 0.0316 µM, first compound 0.316 µM) 59.9% | viability, T/C (second compound 0.0316 µM, first compound 1 µM) 64.3% | viability, T/C (second compound 0.0316 µM, first compound 3.16 µM) 40.4% | viability, T/C (second compound 0.0316 µM, first compound 10 µM) 37.7% | viability, T/C [7] 76.5% | viability, T/C [8] 85% | viability, T/C (second compound 0.1 µM, first compound 0.316 µM) 82.4% | viability, T/C (second compound 0.1 µM, first compound 1 µM) 79.8% | viability, T/C (second compound 0.1 µM, first compound 3.16 µM) 41.8% | viability, T/C (second compound 0.1 µM, first compound 10 µM) 38.8% | viability, T/C [9] 100% | viability, T/C [10] 66% | viability, T/C (second compound 0.316 µM, first compound 0.316 µM) 84.7% | viability, T/C (second compound 0.316 µM, first compound 1 µM) 81.3% | viability, T/C (second compound 0.316 µM, first compound 3.16 µM) 41.8% | viability, T/C (second compound 0.316 µM, first compound 10 µM) 42.4% | viability, T/C [11] 75.8% | viability, T/C [12] 63.4% | viability, T/C (second compound 1 µM, first compound 0.316 µM) 60% | viability, T/C (second compound 1 µM, first compound 1 µM) 68.2% | viability, T/C (second compound 1 µM, first compound 3.16 µM) 45.3% | viability, T/C (second compound 1 µM, first compound 10 µM) 42%
3390 nM: IC50 (second compound 1 µM)
2010 nM: IC50 (second compound 0.0316 µM)
